# Article PMC8162438, “Cancer cell-selective modulation of mitochondrial respiration and metabolism by potent organogold(III) dithiocarbamates” (Chemical Science, 2020)
# How the values were obtained:
# MDA-MB-231 = test: Cell fraction gold uptake by GF-AAS; format: cell-based; conditions: MDA-MB-231, 5 μM, 24 h
# Experimental: We next performed cellular uptake studies to determine what percentage of the compounds were getting into the cell after treatment. Given that most therapeutic targets are localized receptors on the plasma membrane, quantifying the amount of gold compounds in cellular fractions and investigating their mode of uptake is crucial. For whole-cell uptake studies, MDA-MB-231 were treated with all 10 compounds and Auranofin at 5 μM for 24 h (Fig. 5A). Auranofin is the only gold-based therapeutic to be clinically approved, therefor we used this drug as a benchmark for comparison.[67] After treatment, the cells were washed with PBS, centrifuged, and digested with 0.5 mL of conc. HNO3 and diluted with DI water and subjected to ICP-OES analysis. […] Given that these complexes readily react with nucleophilic biological molecules and the lack of accumulation in the nuclear fraction, it is evident that the mechanism of action of this class of compounds is differentiated from the clinically available platinum agents. […]
# and treated at a final concentration of 5 µ M and treated for 24 hours as well. The cells were then collected by trypsinization and centrifuged at 2000 rpm for 5 minutes to form a pellet. The pellet was suspended in 1 mL of DMEM, transferred to a 1.5 mL Eppendorf tube, and centrifuged again at 2000 rpm for 5 minutes. […]
# MRC5 = test: Seahorse XF96 mitochondria stress test (OCR), MRC5; format: cell-based, human; conditions: MRC5, 0.1–3 μM
compound,measurement,setting,value
C[N+](C)=C1[S][Au-2]2([S]1)[c]1ccccc1Cc1cccc[n+]12.F[P-](F)(F)(F)(F)F (centres unmarked) [2a],Au content localized in the cytoplasm and total membrane fraction (pellet),MDA-MB-231,> 90%
same,Effect on OCR of MRC5,MRC5,did not impact the OCR
